Results as given in patent publication EP2848693A1, “Concatenation of halogenated alkenyl diphosphate derivatives” (LANXESS Deutschland GmbH, priority 2013, dated 2015).

Assays:
Type in all cases: biochemical
[1] = molecular target: T1, EcUPPS (Escherichia coli, UniProt P60472); experiment: Product chain length by HPLC with fluorescent starter substrate 110; settings: 10 µM EcUPPS, 110 as starter substrate, HPLC of hydrolysed products
T1 construct: made in house; host or cells: E. coli
Description: Zur Bestimmung der Produktkettenlängen wurden 500 µL Enzymassays in MS-Gläschen durchgeführt. […] Die Extraktion der Polyprenyldiphosphate erfolgte mit 500 µL 1-Butanol. Die Butanolphase wurde in ein neues Glas überführt und unter Stickstoffstrom von dem Lösungsmittel befreit. Die Hydrolyse der Diphosphate zum Polyprenol erfolgte durch Zugabe von 200 µL Hydrolysepuffer (20% Isopropanol, 4,4 Units/mL saure Phophatase aus Kartoffeln, 0,1 % Triton X-100, 50 mM Natriumacetat (pH 4,7)) und wurde über Nacht bei 37 °C inkubiert. Die Polyprenole wurden mit 500 µL nHexan extrahiert und zur weiteren DC- oder HPLC-Analyse vorbereitet. Für DC-Experimente und LC/ESI-MS-Analysen wurde die nHexan-Phase in ein neues Glas überführt, das Lösungsmittel abgedampft und die Produkte erneut in 100 µL nHexan resuspendiert um eine Aufkonzentrierung zu erreichen. Für HPLC-Analysen mit 110 ((2E,6E)-8-O-(N-methyl-2-aminobenzoyl)-3,7-dimethyl-2,6-octandien-1-diphosphat) als Startersubstrat wurde die nHexan-Phase 1:3 verdünnt in das HPLC-System mittels Autosampler injiziert.
Die HPLC-Analyse der Polyprenole erfolgte an einer Anlage von Merck HITACHI D-7000, wobei als stationäre Phase eine YMC-ODS AQ (150 x 4 mm, 5 µm; YMC Europe GmbH, Dinslaken) Säule verwendet wurde. Die Elution erfolgte mit 1 mL·min^-1 und die Detektion bei 210 nm mit einem UV-VIS Detektor: Merck HITACHI L-7420. […]

[2] = molecular target: T2, MIUPPS (Micrococcus luteus, UniProt O82827); experiment: Prenyltransferase activity test, conversion of FPP with elongation substrate (MTP phosphate detection assay); settings: 5 µM E,E-FPP, 200 µM elongation substrate, 50 µM enzyme, room temperature
T2 construct: poly-Histidin-Tag (His6) (N); made in house; host or cells: E. coli BL21 (DE3)
T2 sequence (O82827 1-249): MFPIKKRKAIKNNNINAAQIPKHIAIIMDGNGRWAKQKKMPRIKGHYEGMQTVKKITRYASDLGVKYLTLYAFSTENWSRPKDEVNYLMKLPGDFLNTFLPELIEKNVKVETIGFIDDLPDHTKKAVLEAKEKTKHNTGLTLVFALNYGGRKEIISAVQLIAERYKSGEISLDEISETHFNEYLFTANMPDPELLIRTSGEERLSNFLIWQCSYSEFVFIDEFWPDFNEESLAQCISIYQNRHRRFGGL
Description: (§1) Die Aktivität der Prenyltransferasen wurde hinsichtlich der Umsetzung von Farnesyldiphosphat (FPP) als Startersubstrat und Isopentenyldiphosphat (IPP), und Cl-BPP bzw. Br-BPP mit Hilfe des MTP-Phosphatdetektionsassays bestimmt.
(§2) Cl-BPP und jeweils 50 µM Enzym bei Raumtemperatur durchgeführt. […] Cl-BPP gezeigt werden. Als Negativkontrolle diente ein Ansatz ohne Enzym (nicht gezeigt).

[3] = molecular target: T1, EcUPPS; experiment: as above; settings: 5 µM E,E-FPP, 200 µM elongation substrate, 50 µM enzyme, room temperature
Description: as §1, §2

[4] = molecular target: T3, MtUPPS (Mycobacterium tuberculosis, UniProt P9WFF7); experiment: as above; settings: 5 µM E,E-FPP, 200 µM elongation substrate, 50 µM enzyme, room temperature
T3 construct: poly-Histidin-Tag (His6) (N); made in house; host or cells: E. coli BL21 (DE3)
T3 sequence (P9WFF7 whole entry): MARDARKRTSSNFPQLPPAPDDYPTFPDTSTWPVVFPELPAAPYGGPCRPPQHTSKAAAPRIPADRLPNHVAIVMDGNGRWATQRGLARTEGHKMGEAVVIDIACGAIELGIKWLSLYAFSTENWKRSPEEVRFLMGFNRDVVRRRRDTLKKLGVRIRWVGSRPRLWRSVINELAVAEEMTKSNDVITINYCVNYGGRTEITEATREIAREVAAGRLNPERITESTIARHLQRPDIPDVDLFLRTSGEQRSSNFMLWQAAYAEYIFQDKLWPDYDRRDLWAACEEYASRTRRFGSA
Description: as §1, §2

[5] = molecular target: T4, HpUPPS (Helicobacter pylori, UniProt P55984); experiment: as above; settings: 5 µM E,E-FPP, 200 µM elongation substrate, 50 µM enzyme, room temperature
T4 construct: poly-Histidin-Tag (His6) (N); made in house; host or cells: E. coli BL21 (DE3)
T4 sequence (P55984 whole entry): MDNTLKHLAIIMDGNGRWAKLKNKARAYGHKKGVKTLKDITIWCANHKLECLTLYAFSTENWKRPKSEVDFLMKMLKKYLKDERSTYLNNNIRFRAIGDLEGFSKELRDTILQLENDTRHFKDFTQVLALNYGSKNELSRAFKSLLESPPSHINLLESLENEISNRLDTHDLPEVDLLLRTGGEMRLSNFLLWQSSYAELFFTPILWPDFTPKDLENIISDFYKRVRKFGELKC
Description: as §1, §2

T1 sequence (P60472 whole entry): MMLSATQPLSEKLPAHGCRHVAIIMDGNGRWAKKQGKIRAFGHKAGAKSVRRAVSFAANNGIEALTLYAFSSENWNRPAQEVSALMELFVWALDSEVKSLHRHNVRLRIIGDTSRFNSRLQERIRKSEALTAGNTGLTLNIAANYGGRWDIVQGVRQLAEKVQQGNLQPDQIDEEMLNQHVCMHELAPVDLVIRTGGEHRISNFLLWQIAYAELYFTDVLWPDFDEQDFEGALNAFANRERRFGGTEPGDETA

## C=C(Cl)CCOP(=O)(O)OP(=O)(O)O [Cl-BPP, 3-Chlor-3-Butenyldiphosphat]
[1]
  Kondensationsschritte / Elongationseinheiten: 2
[2]
  Aktivität (Umsetzung von FPP mit Elongationssubstrat): im geringeren Maße
[3]
  Aktivität (Umsetzung von FPP mit Elongationssubstrat): höchste Aktivität
[4]
  Aktivität (Umsetzung von FPP mit Elongationssubstrat): höchste Aktivität
[5]
  Aktivität (Umsetzung von FPP mit Elongationssubstrat): im geringeren Maße
